The record followed here is patent US20080146576A1, “N-(1-Phthalazin-1-ylpiperidin-4-yl)amides as EP2 receptor modulators” (priority 2006, published 2008).

Broadly, the IC50 is the concentration at which inhibition is half-maximal.

For test [1], the system named is cumulus-oocyte complexes. Put plainly: Cumulus expansion assay in vitro. The class given is cell-based, mice. The settings on record: competing with PGE2. On the procedure: Folliculogenesis is induced in immature female mice (strain: CD1 (ICR) from Charles River) at an age of 14-18 days by a single dose (intraperitoneally) of 10 I.U. of PMSG (Pregnant Mare Serum Gonadotropin; Sigma G-4877, Batch 68H0909). 47-50 hours after the injection, the ovaries are removed and the cumulus-oocyte complexes are removed. The cumulus complex is not yet expanded at this stage.
The cumulus-oocyte complexes are then incubated with prostaglandin E2 (PGE2) (1 μM), vehicle control (ethanol) or test substances for 20-24 hours. Medium: alpha-MEM medium with 0.1 mM IBMX, pyruvates (0.23 mM), glutamines (2 mM), pen/strep (100 IU/ml pen. and 100 μg/ml strep.) and HSA (8 mg/ml). Cumulus expansion is then established through the division into four stages (according to Vanderhyden et al. Dev Biol. 1990 August; 140(2):307-317).

Test [2] concerns the target T1, human prostaglandin E2 (subtype EP2) receptor (Homo sapiens, UniProt P43116).
T1 construct: host or cells: cells on a cell culture plate
Kind of test: cAMP agonism assay (HTRF cAMP). The class given is cell-based. As for the experimental part: (§1) The binding of PGE2 to the EP2 subtype of the human PGE2 receptor induces activation of membrane-associated adenylate cyclases and leads to the formation of cAMP. In the presence of the phosphodiesterase inhibitor IBMX, cAMP which has accumulated due to this stimulation and been released by cell lysis is employed in a competitive detection method. In this assay, the cAMP in the lysate competes with cAMP-XL665 for binding of an Eu cryptate-labeled anti-cAMP antibody.
(§2) The two signals are measured in a suitable measuring instrument with a time lag, i.e. after the background fluorescence has declined.
The substance solutions (0.75 μl) containing 30% DMSO are introduced into an assay plate and dissolved in 16 μl of a KRSB+IBMX stimulation solution (1× Krebs-Ringer Bicarbonate Buffer; Sigma-Aldrich # K-4002; including 750 μM 3-isobutyl-1-methylxanthine Sigma-Aldrich # I-7018), and then 15 μl thereof are transferred into a media-free cell culture plate which has been washed with KRSB shortly beforehand.
After incubation at room temperature (RT; volume: ˜15 μl) for 60 minutes, the reaction is then stopped by adding 5 μl of lysis buffer and incubated at RT for a further 20 min (volume: ˜20 μl). The cell lysate is then transferred into a measuring plate and measured in accordance with the manufacturer's information (cyclic AMP kit Cisbio International #62AMPPEC).
On the technique in general: Time-resolved FRET reads energy transfer from a long-lived donor to a nearby acceptor.

Test [3] concerns the target T1, human prostaglandin E2 (subtype EP2) receptor. Put plainly: cAMP antagonism assay (HTRF cAMP, PGE2-stimulated cells). The class given is cell-based. As for the experimental part: as §1, §2
The substance solutions (0.75 μl) containing 30% DMSO are introduced into an assay plate and dissolved in 16 μl of a KRSB+IBMX stimulation solution (1× Krebs-Ringer Bicarbonate Buffer; Sigma-Aldrich # K-4002; including 750 μM 3-isobutyl-1-methylxanthine Sigma-Aldrich # I-7018), and then 15 μl, thereof are transferred into a media-free cell culture plate which has been washed with KRSB shortly beforehand.
After preincubation at room temperature (RT) for 30 minutes, 5 μl of a 4×PGE2 solution (11 nM) are added, and incubation is carried out in the presence of the agonist at RT for a further 60 min (volume: ˜20 μl) before the reaction is then stopped by adding 5 μl of lysis buffer and incubated at RT for a further 20 min (volume: ˜25 μl). The cell lysate is then transferred into a measuring plate and measured in accordance with the manufacturer's information (cyclic AMP kit Cisbio International #62AMPPEC).

Setting [4] is: cAMP assay, no PGE2 added, read-out: Agonism [ED50.
The mark [5] stands for this setting: cAMP assay in presence of PGE2, read-out: Antagonism [IC50.

Where two headings read alike, the source gives them in different places.

T1 sequence (P43116 whole entry): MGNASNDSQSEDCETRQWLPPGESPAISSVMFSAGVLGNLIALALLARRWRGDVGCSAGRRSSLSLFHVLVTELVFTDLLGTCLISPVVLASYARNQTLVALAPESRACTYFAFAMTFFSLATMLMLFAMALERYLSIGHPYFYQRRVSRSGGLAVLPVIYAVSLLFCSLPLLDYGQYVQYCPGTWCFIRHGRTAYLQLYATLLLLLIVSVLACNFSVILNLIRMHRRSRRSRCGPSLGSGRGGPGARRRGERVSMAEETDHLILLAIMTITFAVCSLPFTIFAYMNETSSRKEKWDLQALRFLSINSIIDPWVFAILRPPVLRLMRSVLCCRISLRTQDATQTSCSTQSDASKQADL

Turning to `CC(C)Oc1ccc2c(=O)c3cc(C(=O)O)ccc3oc2c1` [AH 6809, reference compound], in test [1] (at a concentration of 100-200 μM), the “suppression of cumulus expansion” value is “about 20%”.

Take `O=C(NC1CCN(c2nncc3ccc(Br)cc23)CC1)c1cccc(Cl)c1Cl` [Example 1, N-[1-(7-Bromo-phthalazin-1-yl)-piperidin-4-yl]-2,3-dichloro-benzamide]: in test [2] (setting [4]), the EC50 is over 19000 nM. In test [3] (setting [5]), the IC50 amounted to 300 nM.

`O=C(NC1CCN(c2nncc3cc(Br)ccc23)CC1)c1cccc(Cl)c1Cl` [Example 2, N-[1-(6-Bromo-phthalazin-1-yl)-piperidin-4-yl]-2,3-dichloro-benzamide]: the “suppression of cumulus expansion” value in test [1] (at one tenth of the concentration (of 100-200 μM)) is recorded as 35%. The EC50 in test [2] (setting [4]) and in test [2] (read-out: EC50 in the cellular agonism test) was over 19000 nM each time. For the same compound, in test [3] (read-out: IC50 in the antagonism test), the IC50 was 200 nM.

Regarding `Cc1nnc(N2CCC(NC(=O)c3cccc(Cl)c3Cl)CC2)c2cc(Br)ccc12` [Example 3, N-[1-(7-Bromo-4-methyl-phthalazin-1-yl)-piperidin-4-yl]-2,3-dichloro-benzamide], in test [2] (setting [4]), the EC50 was over 19000 nM. Moreover, the IC50 in test [3] (setting [5]) is 700 nM.

Regarding `Cc1nnc(N2CCC(NC(=O)c3cccc(Cl)c3Cl)CC2)c2ccc(Br)cc12` [Example 4, N-[1-(6-Bromo-4-methyl-phthalazin-1-yl)-piperidin-4-yl]-2,3-dichloro-benzamide], the EC50 in test [2] (setting [4]) was over 19000 nM. Besides, the IC50 in test [3] (setting [5]) is 500 nM.
